Where two headings read alike, the source gives them in different places.
What was measured:
[1] = test system: durch Reserpin induzierten Hypothermie; assay: Antireserpine activity (reserpine-induced hypothermia); assay type: in vivo, Maus; conditions: ip
Description: Zur Zeit 0 erhalten die Mäuse intraperitoneal Reserpin (2,5 mg/kg).
4 Stunden danach, wenn die Hypothermie genügend stark erscheint (30 bis 33°C), verabreicht man die verschiedenen zu untersuchenden Verbindungen i.p. oder p.o. Alle 30 Minuten über einen Zeitraum von 2 Stunden mißt man die Rektaltemperatur mit einer auf konstante Tiefe eingeführten, ein Thermoelement tragenden Sonde. Die Rektaltemperatur der mit verschiedenen erfindungsgemäßen Verbindungen behandelten Tiere wird mit der Temperatur einer Kontrollgruppe verglichen, die destilliertes Wasser auf die gleiche Weise wie die untersuchten Verbindungen erhält.
Die Akinesie (fehlende Bewegungen) und Ptose (Öffnungsgrad des Augenlids von 0 bis 4 nach Rubin u.a 1957) werden ebenfalls alle 30 Minuten über einen Zeitraum von 2 Stunden bewertet.
Die eine antidepressive Aktivität besitzenden Produkte wirken der durch Reserpin induzierten Hypothermie entgegen. Für jede Dosis der verabreichten Verbindung berechnet man die prozentuale Hemmung der Hypothermie.

[2] = test system: Apomorphin 16 mg/kg; assay: Antiapomorphine activity (apomorphine 16 mg/kg s.c., hypothermia); assay type: in vivo, Maus
Description: Zur Zeit 0 nach Ausgleich der Reaktaltemperaturen werden die Mäuse (6 pro Gruppe) in deren Beobachtung gestattende Einzelkäfige (11 x 3,5 x 4 cm) eingeetzt. 30 Minuten nach i.p. bzw. p.o. Verabreichung der Testsubstanz erhalten sie Apomorphin subkutan in einer Dosis von 16 mg/kg. Die Rektaltemperatur wird 30 Minuten nach dem Apomorphin gemessen. Die Kontrolltiere erhalten destilliertes Wasser statt der zu untersuchenden Verbindungen. Die bei diesen Kontrolltieren, die 16 mg/kg Apomorphin erhalten haben, beobachtete Hypothermie liegt im Durchschnitt bei 33°C. Für jede Verbindungsdosis berechnet man die prozentuale Hemmung der Hypothermie.

[3] = test system: durch Oxotremorin induzierten Hypothermie; assay: Antioxotremorine activity (oxotremorine-induced hypothermia); assay type: in vivo, Maus; conditions: ip, read-out: Erste wirksame Dosis Oxotremorin
Description: Nach Ausgleich der Rektaltemperaturen erhalten Mäuse (6 pro Gruppe) entweder destillietes Wasser oder die verschiedenen zu untersuchenden Verbindungen i.p.
30 Minuten danach verabreicht man intraperitoneal Oxotremorin in einer Dosis von 0,5 mg/kg.
Die Mäuse werden dan beobachtet: Tremor wird je nach der Intensität von 0 bis 3 bewertet, und die Akinesie wird alle 10 Minuten über einen Zeitraum von 30 Minuten auf Vorliegen oder Fehlen bestimmt.
Außerdem beobachtet man 2 Stunden lang das Erscheinen peripherer Symptome (Tränen, Darmentleerung). Die Rektaltemperatur wird alle 30 Minuten über eine Zeitraum von 2 Stunden nach der Verabreichung des Oxotremorins gemessen.
Die eine antidepressive Aktivität besitzenden Produkte wirken der durch Oxotremorin induzierten Hypothermie entgegen.
Für jede Dosis der Verbindung berechnet man die prozentuale Hemmung der Hypothermie.

[4] = test system: Motoraktivität; assay: Actimetry (motor activity, photocell actimeter); assay type: in vivo, Maus; conditions: for Aktimetrie: mouse, direction of change of motor activity
Source text: Die Motoraktivität wird mittels Photozellenaktimetern bestimmt (Boissier und Simon, Arch. Int. Pharmacodyn. 1965, 158, 212-221).
Die Mäuse (10 oder ein Vielfaches von 10 pro Gruppe) werden unmittelbar nach i.p. Verabreichung der zu untersuchenden Verbindungen in das Aktimeter eingesetzt. Die Motoraktivität wird danach bis zur 60. Minute gemessen. De Zähler werden nach 30 Minuten abgelesen und dann auf 0 zurückgestellt und im Verlauf von 30 Minuten alle 10 Minuten abgelesen.
Die Beweglichkeit der mit den verschiedenen Verbindungen behandelten Tiere wird mit derjenigen einer destilliertes Wasser erhaltenden Kontrollgruppe verglichen.
Die eine psychostimulierende Aktivität besitzenden Produkte verursachen eine Zunahme der Beweglichkeit.

[5] = test system: stereotypen Bewegungen; assay: Search for stereotyped movements; assay type: in vivo, Ratte; conditions: rat
Source text: Suche nach stereotypen Bewegungen an der Ratte
Unmittelbar nach i.p. oder p.o. Verabreichung der zu unteruchenden Verbindungen werden die Tiere (6 Ratten pro Gruppe) in 20 x 10 x 10 cm große, mit einem Edelstahldeckel mit Löchern von 1 cm Durchmesser versehene Einzelkäfige aus durchsichtigem Kunststoff eingesetzt. Die stereotypen Bewegungen (Bewegungen der Mundhöhle, Schnüffeln, Lecken oder Kauen) werden nach der von Simon und Chermat (J. Pharmacol. Paris, 1972, 3, 235-238) beschriebenen Methode alle 10 Minuten von 0 bis 3 bewertet, bis sie bei allen Tieren verschwunden sind.

[6] = test system: Maus; assay: Tail suspension test; assay type: in vivo; conditions: ip
Source text: Schwanzaufhängungstest an der Maus wie von Stéru u.a. beschrieben (Psychopharmacology 85, 367-370, 1985).
Die Substanzen werden intraperitoneal 30 Minuten vor dem Test verabreicht und die Tiese isoliert (10 Mäuse pro Dosis).
Man bewertet die Dauer der Unbeweglichkeit, ausgedrückt in Sekunden über die 6 Minuten des Tests. Man untersucht auf eine Verkürzung dieser Unbeweglichkeitszeit.

[7] = test system: Apomorphin 1 mg.kg^-1 s.c.; assay: Apomorphine 1 mg/kg s.c. antagonism (no method given); assay type: in vivo; conditions: ip, Tabelle Ib; read-out: Erste wirksame Dosis Apomorphin 1 mg.kg^-1 s.c.
[8] = test system: Toxizität des Yohimbins; assay: Potentiation of yohimbine toxicity; assay type: in vivo, Maus; conditions: only or lowest value of the cell
Description: Wirkung auf die Toxizität des Yohimbins
Zur Zeit 0 erhalten die Mäuse entweder destilliertes Wasser oder verschiedene zu untersuchende Verbindungen i.p. 30 Minuten danach verabreicht man ihnen subkutan eine infratoxische Dosis von 25 mg/kg Yohimbinchlorhydrat.
Die Mortalität wird jede Stunde über einen Zeitraum von 4 Stunden verfolgt und dann nach 24 Stunden notiert.
Die eine antidepressive Aktivität besitzenden Produkte verursachen eine Potenzierung der Toxizität des Yohimbins.

[9] = Mus musculus, read-out: Erste wirksame Dosis Reserpin, mouse, i.p., only or lowest value of the cell
[10] = Mus musculus, ip, read-out: Erste wirksame Dosis Apomorphin 16 mg/kg, mouse, i.p., only or lowest value of the cell

| SMILES | minimal effective dose ([1]; Tabelle Ib, read-out: Erste wirksame Dosis Reserpin) | minimal effective dose ([1]; mouse, i.p., only or lowest value of the cell, read-out: Erste wirksame Dosis Reserpin) | minimal effective dose ([2]; ip, Tabelle Ib, read-out: Erste wirksame Dosis Apomorphin 16 mg.kg^-1 s.c.) | minimal effective dose ([2]; ip, mouse, i.p., only or lowest value of the cell, read-out: Erste wirksame Dosis Apomorphin 16 mg/kg) | minimal effective dose ([2]; mouse, further value in the same cell, route not stated (lowest = i.p.; p.o. also tested), read-out: Erste wirksame Dosis Apomorphin 16 mg/kg) | minimal effective dose ([3]; Tabelle Ib) | minimal effective dose ([3]; mouse, i.p.) | Motilität ([4]; i.p., direction of change, Tabelle Ib) | minimal effective dose ([4]; ip, Tabelle Ib, read-out: Erste wirksame Dosis Motilität) | Aktimetrie [4] | Stereotype Bewegung ([5]; 64 mg/kg i.p.) | minimal effective dose ([6]; Tabelle Ib, read-out: Erste wirksame Dosis T.S.T. Maus) | minimal effective dose ([6]; mouse, i.p., footnote of Tabelle 1, read-out: tail suspension test= positiv ab) | minimal effective dose [7] | minimal effective dose [1, 9] | minimal effective dose [2, 10] | minimal effective dose ([3]; Mus musculus) | Erste wirksame Dosis Yohimbin ([8]; mouse, i.p.) | Stereotype Bewegung ([5]; 64 mg/kg p.o.) | minimal effective dose ([8]; Mus musculus, ip, read-out: Erste wirksame Dosis Yohimbin, mouse, i.p.) |
| --- | --- | --- | --- | --- | --- | --- | --- | --- | --- | --- | --- | --- | --- | --- | --- | --- | --- | --- | --- | --- |
| FC(F)(F)c1ccc([C@@H]2CCNC[C@H]2c2ccccc2)cc1 (racemic) [Beispiel 3, trans-3-Phenyl-4-(4-trifluormethylphenyl)-piperidin-chlorhydrat] | 1 mg/kg | 1 mg/kg | 2 mg/kg | 2 mg/kg | 4 mg/kg | 8 mg/kg | 8 mg/kg | ↘ | 32 mg/kg | ↘ | 0(64i.p.) | 4 mg/kg | ≥ 4 mg/kg | 2 mg/kg |  |  |  |  |  |  |
| c1ccc([C@@H]2CCNC[C@H]2c2ccccc2)cc1 (relative stereo) [21 (Base), trans-3,4-Diphenylpiperidin] |  |  |  |  |  |  |  |  |  |  |  |  |  |  | 4 mg/kg | 4 mg/kg | 4 mg/kg | 4 mg/kg | 0(64p.o.) |  |
| Clc1ccc(C2CCNCC2c2ccccc2)cc1 (stereo not drawn) [Beispiel 12, cis-4-(4-Chlorphenyl)-3-phenylpiperidin] |  |  |  |  |  |  |  |  |  | ↘ = | 0(64i.p.) |  |  |  | 4 mg/kg | 2 mg/kg | 16 mg/kg |  |  | 16 mg/kg |
